Measured values from PubChem BioAssay AID2060338 (Molecular Pharmacology Branch, DTP, NCI, 2025).

System: 556581-035-R-J1-PDC spheroids with HUVEC/MSC, viability
Test: Anticancer human tumor 556581-035-R-J1-PDC patient-derived ovarian carcinoma cell line growth inhibition [IpAb]
Conditions: for IC50: curve of first compound; for viability, T/C: stronger effect = lower value
Method in brief: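 Multi-cell spheroids of 60% tumour cells, 25% HUVEC and 15% MSC in ultra-low-attachment U-bottom wells, treated with agents combined with ipatasertib or abemaciclib. Half-log ranges top out near clinical Cmax, or 10 microM when Cmax is unknown.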

[1] = second compound 0.1 µM, first compound 0.0316 µM
[2] = second compound 0.1 µM, first compound 0.1 µM
[3] = second compound 0.1 µM, first compound 0.316 µM
[4] = second compound 0.1 µM, first compound 1 µM
[5] = second compound 0.1 µM, first compound 3.16 µM
[6] = second compound 0.1 µM, first compound 10 µM
[7] = second compound 0.316 µM, first compound 0.0316 µM
[8] = second compound 0.316 µM, first compound 0.1 µM
[9] = second compound 0.316 µM, first compound 0.316 µM
[10] = second compound 0.316 µM, first compound 1 µM
[11] = second compound 0.316 µM, first compound 3.16 µM
[12] = second compound 0.316 µM, first compound 10 µM
[13] = second compound 1 µM, first compound 0.0316 µM
[14] = second compound 1 µM, first compound 0.1 µM
[15] = second compound 1 µM, first compound 0.316 µM
[16] = second compound 1 µM, first compound 1 µM
[17] = second compound 1 µM, first compound 3.16 µM
[18] = second compound 1 µM, first compound 10 µM
[19] = second compound 3.16 µM, first compound 0.0316 µM
[20] = second compound 3.16 µM, first compound 0.1 µM
[21] = second compound 3.16 µM, first compound 0.316 µM
[22] = second compound 3.16 µM, first compound 1 µM
[23] = second compound 3.16 µM, first compound 3.16 µM
[24] = second compound 3.16 µM, first compound 10 µM
[25] = second compound 10 µM, first compound 0.0316 µM
[26] = second compound 10 µM, first compound 0.1 µM
[27] = second compound 10 µM, first compound 0.316 µM
[28] = second compound 10 µM, first compound 1 µM
[29] = second compound 10 µM, first compound 3.16 µM
[30] = second compound 10 µM, first compound 10 µM
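Note: spheroids exposed to compounds for 7 days before readout.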

Compound: C=CC(=O)N1CCN(c2nc(=O)n(-c3c(C)ccnc3C(C)C)c3nc(-c4c(O)cccc4F)c(F)cc23)C(C)C1 (stereo not given) + CC(C)NCC(C(=O)N1CCN(c2ncnc3c2C(C)CC3O)CC1)c1ccc(Cl)cc1
- IC50 (second compound 0.1 µM): 5380 nM
- IC50 (second compound 0.316 µM): 6530 nM
- IC50 (second compound 1 µM): 4020 nM
- IC50 (second compound 3.16 µM): 1790 nM
- IC50 (second compound 10 µM): < 31.6 nM
- viability, T/C [1]: 99.9%
- viability, T/C [2]: 108%
- viability, T/C [3]: 103%
- viability, T/C [4]: 111%
- viability, T/C [5]: 68.6%
- viability, T/C [6]: 28.3%
- viability, T/C [7]: 79.8%
- viability, T/C [8]: 79.1%
- viability, T/C [9]: 74%
- viability, T/C [10]: 85.1%
- viability, T/C [11]: 73.4%
- viability, T/C [12]: 35.4%
- viability, T/C [13]: 74.3%
- viability, T/C [14]: 65.6%
- viability, T/C [15]: 59.8%
- viability, T/C [16]: 64%
- viability, T/C [17]: 57%
- viability, T/C [18]: 28.4%
- viability, T/C [19]: 54.5%
- viability, T/C [20]: 54.5%
- viability, T/C [21]: 52.6%
- viability, T/C [22]: 47.9%
- viability, T/C [23]: 48.9%
- viability, T/C [24]: 21.8%
- viability, T/C [25]: 44.6%
- viability, T/C [26]: 48.2%
- viability, T/C [27]: 45.5%
- viability, T/C [28]: 48.5%
- viability, T/C [29]: 34.9%
- viability, T/C [30]: 13.5%

Compound: CC(C)(C)c1cnc(CSc2cnc(NC(=O)C3CCNCC3)s2)o1 + CC(C)NCC(C(=O)N1CCN(c2ncnc3c2C(C)CC3O)CC1)c1ccc(Cl)cc1
- IC50 (second compound 0.1 µM): 107 nM
- IC50 (second compound 0.316 µM): 137 nM
- IC50 (second compound 1 µM): 55.2 nM
- IC50 (second compound 3.16 µM): 42.9 nM
- IC50 (second compound 10 µM): < 9.49 nM
- viability, T/C (second compound 0.1 µM, first compound 0.00949 µM): 86.1%
- viability, T/C (second compound 0.1 µM, first compound 0.03 µM): 116%
- viability, T/C (second compound 0.1 µM, first compound 0.0949 µM): 55.3%
- viability, T/C (second compound 0.1 µM, first compound 0.3 µM): 3.48%
- viability, T/C (second compound 0.1 µM, first compound 0.949 µM): 3.84%
- viability, T/C (second compound 0.1 µM, first compound 3 µM): 2.08%
- viability, T/C (second compound 0.316 µM, first compound 0.00949 µM): 81.1%
- viability, T/C (second compound 0.316 µM, first compound 0.03 µM): 89.9%
- viability, T/C (second compound 0.316 µM, first compound 0.0949 µM): 71.9%
- viability, T/C (second compound 0.316 µM, first compound 0.3 µM): 3.02%
- viability, T/C (second compound 0.316 µM, first compound 0.949 µM): 2.73%
- viability, T/C (second compound 0.316 µM, first compound 3 µM): 3.48%
- viability, T/C (second compound 1 µM, first compound 0.00949 µM): 64.6%
- viability, T/C (second compound 1 µM, first compound 0.03 µM): 65.4%
- viability, T/C (second compound 1 µM, first compound 0.0949 µM): 36.7%
- viability, T/C (second compound 1 µM, first compound 0.3 µM): 2.25%
- viability, T/C (second compound 1 µM, first compound 0.949 µM): 2.57%
- viability, T/C (second compound 1 µM, first compound 3 µM): 3.16%
- viability, T/C (second compound 3.16 µM, first compound 0.00949 µM): 56.4%
- viability, T/C (second compound 3.16 µM, first compound 0.03 µM): 55.7%
- viability, T/C (second compound 3.16 µM, first compound 0.0949 µM): 36.6%
- viability, T/C (second compound 3.16 µM, first compound 0.3 µM): 2.16%
- viability, T/C (second compound 3.16 µM, first compound 0.949 µM): 3.96%
- viability, T/C (second compound 3.16 µM, first compound 3 µM): 2.31%
- viability, T/C (second compound 10 µM, first compound 0.00949 µM): 46.1%
- viability, T/C (second compound 10 µM, first compound 0.03 µM): 44.2%
- viability, T/C (second compound 10 µM, first compound 0.0949 µM): 11.5%
- viability, T/C (second compound 10 µM, first compound 0.3 µM): 2.21%
- viability, T/C (second compound 10 µM, first compound 0.949 µM): 1.45%
- viability, T/C (second compound 10 µM, first compound 3 µM): 1.36%

Compound: Cn1ncc(Cl)c1-c1cc(C(=O)NC(CN)Cc2cccc(F)c2)sc1Cl (stereo not given) + CC(C)NCC(C(=O)N1CCN(c2ncnc3c2C(C)CC3O)CC1)c1ccc(Cl)cc1
- IC50 (second compound 0.1 µM): 1860 nM
- IC50 (second compound 0.316 µM): 2390 nM
- IC50 (second compound 1 µM): 1900 nM
- IC50 (second compound 3.16 µM): 1310 nM
- IC50 (second compound 10 µM): 1190 nM
- viability, T/C [1]: 84%
- viability, T/C [2]: 81.2%
- viability, T/C [3]: 68.5%
- viability, T/C [4]: 63.4%
- viability, T/C [5]: 40.9%
- viability, T/C [6]: 0.2%
- viability, T/C [7]: 37.8%
- viability, T/C [8]: 79.6%
- viability, T/C [9]: 67.2%
- viability, T/C [10]: 56.8%
- viability, T/C [11]: 47.3%
- viability, T/C [12]: 0.21%
- viability, T/C [13]: 70.2%
- viability, T/C [14]: 67.2%
- viability, T/C [15]: 67.6%
- viability, T/C [16]: 55.3%
- viability, T/C [17]: 45.1%
- viability, T/C [18]: 0.18%
- viability, T/C [19]: 55.3%
- viability, T/C [20]: 74.6%
- viability, T/C [21]: 54.4%
- viability, T/C [22]: 54.2%
- viability, T/C [23]: 37.8%
- viability, T/C [24]: 1.42%
- viability, T/C [25]: 51.8%
- viability, T/C [26]: 55.7%
- viability, T/C [27]: 51.5%
- viability, T/C [28]: 53.4%
- viability, T/C [29]: 32.5%
- viability, T/C [30]: 4.77%

Compound: Cn1nccc1Nc1nccc(-c2ccn(C(CO)c3ccc(Cl)c(F)c3)c(=O)c2)n1 (stereo not given) + CC(C)NCC(C(=O)N1CCN(c2ncnc3c2C(C)CC3O)CC1)c1ccc(Cl)cc1
- IC50 (second compound 0.1 µM): 2480 nM
- IC50 (second compound 0.316 µM): 2330 nM
- IC50 (second compound 1 µM): 165 nM
- IC50 (second compound 3.16 µM): < 31.6 nM
- IC50 (second compound 10 µM): < 31.6 nM
- viability, T/C [1]: 94.8%
- viability, T/C [2]: 75.4%
- viability, T/C [3]: 71.8%
- viability, T/C [4]: 62.4%
- viability, T/C [5]: 50.2%
- viability, T/C [6]: 31.3%
- viability, T/C [7]: 61.6%
- viability, T/C [8]: 79.6%
- viability, T/C [9]: 60.1%
- viability, T/C [10]: 51.5%
- viability, T/C [11]: 52.2%
- viability, T/C [12]: 13.2%
- viability, T/C [13]: 55.8%
- viability, T/C [14]: 61.6%
- viability, T/C [15]: 41%
- viability, T/C [16]: 29.3%
- viability, T/C [17]: 24.8%
- viability, T/C [18]: 9.12%
- viability, T/C [19]: 48.4%
- viability, T/C [20]: 36.4%
- viability, T/C [21]: 38.1%
- viability, T/C [22]: 22.7%
- viability, T/C [23]: 11.6%
- viability, T/C [24]: 5.62%
- viability, T/C [25]: 35.7%
- viability, T/C [26]: 31.3%
- viability, T/C [27]: 27.8%
- viability, T/C [28]: 17.6%
- viability, T/C [29]: 12.3%
- viability, T/C [30]: 1.97%

Compound: Cn1ncnc1[C@H]1c2n[nH]c(=O)c3cc(F)cc(c23)N[C@@H]1c1ccc(F)cc1 + CC(C)NCC(C(=O)N1CCN(c2ncnc3c2C(C)CC3O)CC1)c1ccc(Cl)cc1
- IC50 (second compound 0.1 µM): > 100 nM
- IC50 (second compound 0.316 µM): 94.3 nM
- IC50 (second compound 1 µM): > 100 nM
- IC50 (second compound 3.16 µM): > 100 nM
- IC50 (second compound 10 µM): < 0.316 nM
- viability, T/C (second compound 0.1 µM, first compound 0.000316 µM): 106%
- viability, T/C (second compound 0.1 µM, first compound 0.001 µM): 93%
- viability, T/C (second compound 0.1 µM, first compound 0.00316 µM): 88%
- viability, T/C (second compound 0.1 µM, first compound 0.01 µM): 86.1%
- viability, T/C [1]: 82.6%
- viability, T/C [2]: 64.2%
- viability, T/C (second compound 0.316 µM, first compound 0.000316 µM): 92.7%
- viability, T/C (second compound 0.316 µM, first compound 0.001 µM): 87.5%
- viability, T/C (second compound 0.316 µM, first compound 0.00316 µM): 78%
- viability, T/C (second compound 0.316 µM, first compound 0.01 µM): 59.7%
- viability, T/C [7]: 67.2%
- viability, T/C [8]: 46.8%
- viability, T/C (second compound 1 µM, first compound 0.000316 µM): 70.6%
- viability, T/C (second compound 1 µM, first compound 0.001 µM): 60%
- viability, T/C (second compound 1 µM, first compound 0.00316 µM): 65.9%
- viability, T/C (second compound 1 µM, first compound 0.01 µM): 52.2%
- viability, T/C [13]: 65.4%
- viability, T/C [14]: 55.4%
- viability, T/C (second compound 3.16 µM, first compound 0.000316 µM): 51.2%
- viability, T/C (second compound 3.16 µM, first compound 0.001 µM): 54.1%
- viability, T/C (second compound 3.16 µM, first compound 0.00316 µM): 51.5%
- viability, T/C (second compound 3.16 µM, first compound 0.01 µM): 54.8%
- viability, T/C [19]: 44.2%
- viability, T/C [20]: 54.8%
- viability, T/C (second compound 10 µM, first compound 0.000316 µM): 48.6%
- viability, T/C (second compound 10 µM, first compound 0.001 µM): 46.3%
- viability, T/C (second compound 10 µM, first compound 0.00316 µM): 42.9%
- viability, T/C (second compound 10 µM, first compound 0.01 µM): 35.6%
- viability, T/C [25]: 44.2%
- viability, T/C [26]: 36.2%
